Assay results taken from PubChem BioAssay (NCI).
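The concentration for 50% growth inhibition is given as GI50. The concentration for full growth arrest is given as TGI.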

Legend:
Experiment in all cases: NCI-60 cell line screen, 384-well format
[1] = tested on: A498 renal
[2] = tested on: A549 NSCLC
[3] = tested on: ACHN renal
[4] = tested on: BT-549 breast
[5] = tested on: CAKI-1 renal
[6] = tested on: CCRF-CEM leukemia
[7] = tested on: COLO 205 colon
[8] = tested on: DU-145 prostate
[9] = tested on: EKVX NSCLC
[10] = tested on: HCC-2998 colon
[11] = tested on: HCT-15 colon
[12] = tested on: HL-60(TB) leukemia
[13] = tested on: HOP-62 NSCLC
[14] = tested on: HOP-92 NSCLC
[15] = tested on: HS 578T breast
[16] = tested on: K-562 leukemia
[17] = tested on: KM12 colon
[18] = tested on: LOX IMVI melanoma
[19] = tested on: M14 melanoma
[20] = tested on: MALME-3M melanoma
[21] = tested on: MDA-MB-231 breast
[22] = tested on: MDA-MB-435 melanoma
[23] = tested on: MDA-MB-468 breast
[24] = tested on: NCI-H226 lung
[25] = tested on: NCI-H522 lung
[26] = tested on: NCI/ADR-RES ovarian
[27] = tested on: OVCAR-3 ovarian
[28] = tested on: OVCAR-4 ovarian
[29] = tested on: OVCAR-8 ovarian
[30] = tested on: PC-3 prostate
[31] = tested on: RPMI-8226 leukemia
[32] = tested on: RXF 393 renal
[33] = tested on: SF-268 CNS
[34] = tested on: SF-295 CNS
[35] = tested on: SF-539 CNS
[36] = tested on: SK-MEL-2 melanoma
[37] = tested on: SK-MEL-5 melanoma
[38] = tested on: SK-OV-3 ovarian
[39] = tested on: SNB-19 CNS
[40] = tested on: SNB-75 CNS
[41] = tested on: SR leukemia
[42] = tested on: SW-620 colon
[43] = tested on: T-47D breast
[44] = tested on: TK-10 renal
[45] = tested on: UACC-257 melanoma
[46] = tested on: UACC-62 melanoma
[47] = tested on: UO-31 renal

CC(C)n1c(=O)n(C)c2cnc3cc(F)c(-c4ccc(OCCCN5CCCCC5)nc4)cc3c21
GI50 [1]: > 73.4 µM
TGI [1]: > 100 µM
GI50 [2]: > 100 µM
TGI [2]: > 100 µM
GI50 [3]: > 60.2 µM
TGI [3]: > 100 µM
GI50 [4]: 9.56 µM
TGI [4]: > 100 µM
GI50 [5]: 16.7 µM
TGI [5]: > 95.8 µM
GI50 [6]: 10.1 µM
TGI [6]: > 46.7 µM
GI50 [7]: > 100 µM
TGI [7]: > 100 µM
GI50 [8]: > 89.7 µM
TGI [8]: > 100 µM
GI50 [9]: 11.6 µM
TGI [9]: > 100 µM
GI50 [10]: 30.5 µM
TGI [10]: > 80.3 µM
GI50 [11]: 52.3 µM
TGI [11]: > 100 µM
GI50 [12]: 11.8 µM
TGI [12]: 47 µM
GI50 [13]: > 33.2 µM
TGI [13]: > 100 µM
GI50 [14]: > 54.4 µM
TGI [14]: > 100 µM
GI50 [15]: 3.91 µM
TGI [15]: 27.4 µM
GI50 [16]: 4.93 µM
TGI [16]: > 46.8 µM
GI50 [17]: 4.57 µM
TGI [17]: > 100 µM
GI50 [18]: 72.5 µM
TGI [18]: > 100 µM
GI50 [19]: > 75.7 µM
TGI [19]: > 100 µM
GI50 [20]: > 100 µM
TGI [20]: > 100 µM
GI50 [21]: 36.3 µM
TGI [21]: > 100 µM
GI50 [22]: > 100 µM
TGI [22]: > 100 µM
GI50 [23]: 24.8 µM
TGI [23]: > 100 µM
GI50 [24]: 14.3 µM
TGI [24]: > 100 µM
GI50 [25]: 20.8 µM
TGI [25]: > 82 µM
GI50 [26]: > 100 µM
TGI [26]: > 100 µM
GI50 [27]: 38.9 µM
TGI [27]: > 100 µM
GI50 [28]: > 100 µM
TGI [28]: > 100 µM
GI50 [29]: > 43.4 µM
TGI [29]: > 100 µM
GI50 [30]: 19.6 µM
TGI [30]: > 100 µM
GI50 [31]: 6.13 µM
TGI [31]: 42.1 µM
GI50 [32]: > 63.4 µM
TGI [32]: > 100 µM
GI50 [33]: 45.4 µM
TGI [33]: > 100 µM
GI50 [34]: > 100 µM
TGI [34]: > 100 µM
GI50 [35]: > 84.1 µM
TGI [35]: > 100 µM
GI50 [36]: 35.2 µM
TGI [36]: > 70 µM
GI50 [37]: > 38.4 µM
TGI [37]: > 100 µM
GI50 [38]: > 62.5 µM
TGI [38]: > 100 µM
GI50 [39]: > 95.5 µM
TGI [39]: > 100 µM
GI50 [40]: 20.6 µM
TGI [40]: > 100 µM
GI50 [41]: 7.14 µM
TGI [41]: 19.4 µM
GI50 [42]: 19.5 µM
TGI [42]: > 75.8 µM
GI50 [43]: > 48.5 µM
TGI [43]: > 100 µM
GI50 [44]: 51.7 µM
TGI [44]: > 100 µM
GI50 [45]: 36.3 µM
TGI [45]: > 100 µM
GI50 [46]: 31.9 µM
TGI [46]: > 100 µM
GI50 [47]: 83.8 µM
TGI [47]: > 100 µM
